Measurements published in patent publication US12065421B2, “Inhibitors of oplophorus luciferase-derived bioluminescent complexes” (priority 2018, dated 2024).

Target: T1, NanoBiT® HiBiT non-luminescent peptide and LgBiT non-luminescent polypeptide (HiBiT/LgBiT bioluminescent complex) (Oplophorus gracilirostris, UniProt Q9GV45, A31E/A60N/A81I/C191F/D135N/E192K/F58L/F95D/G184S/G42A/G62A/G78A/G94A/G98A/H120P/I103V/I117V/I134L/K70R/L176M/L195S/L54V/L73R/L99Q/M102E/N171T/N193K/P142E/Q151K/Q38E/Q45L/T186S/V71I/Y165I)
T1 construct: fused on or other part: N-terminal Met-Val on LgBiT in place of the signal peptide (residues 1-27); The chain is split between residues 184 and 185 into LgBiT and the 11-residue HiBiT peptide (residues 185-195); C-terminal A196 is absent
Test: biochemical

T1 sequence (Q9GV45 other isoform, or with tags, fused parts or gaps with the stated changes): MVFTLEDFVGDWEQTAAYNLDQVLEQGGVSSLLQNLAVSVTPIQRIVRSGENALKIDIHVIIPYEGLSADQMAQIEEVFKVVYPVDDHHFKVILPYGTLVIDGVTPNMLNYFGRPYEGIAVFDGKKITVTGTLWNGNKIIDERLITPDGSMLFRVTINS

| Compound | IC50 [nM] |
| --- | --- |
| N#Cc1c(NC(=O)c2ccccc2NS(=O)(=O)c2ccccc2)sc2c1CCC2 [HL-0010, N-(3-cyano-5,6-dihydro-4H-cyclopenta[b]thiophen-2-yl)-2-(phenylsulfonamido)benzamide] | 22 |
| CCCCc1ccc(NS(=O)(=O)c2ccc(C)cc2)c(C(=O)Nc2cc3ccccc3s2)c1 [JRW-1146, N-(benzo[b]thiophen-2-yl)-5-butyl-2-((4-methylphenyl)sulfonamido)benzamide] | 630 |
| Cc1ccc(S(=O)(=O)Nc2ccccc2C(=O)NC2CCCCC2)cc1 [HL-0006, N-cyclohexyl-2-((4-methylphenyl)sulfonamido)benzamide] | 210 |
| Cc1ccc(S(=O)(=O)Nc2ccccc2C(=O)Nc2cccc(C(C)C)c2)cc1 [HL-0025, N-(3-isopropylphenyl)-2-((4-methylphenyl)sulfonamido)benzamide] | 85 |
| O=Cc1ccc(S(=O)(=O)Nc2ccccc2C(=O)Nc2cc3ccccc3s2)cc1 [HL-0038, N-(benzo[b]thiophen-2-yl)-2-((4-formylphenyl)sulfonamido)benzamide] | 44 |
| COc1ccccc1NC(=O)c1ccccc1NS(=O)(=O)c1ccc(C)cc1 [JRW-1292, N-(2-methoxyphenyl)-2-((4-methylphenyl)sulfonamido)benzamide] | 590 |
| Cc1ccc(NC(=O)c2ccccc2NS(=O)(=O)c2cccc(OC(F)(F)F)c2)cc1 [JRW-1328, N-(p-tolyl)-2-((3-(trifluoromethoxy)phenyl)sulfonamido)benzamide] | 1100 |
| Cc1ccc(S(=O)(=O)Nc2ccccc2C(=O)Nc2sccc2C#N)cc1 [JRW-1006, N-(3-cyanothiophen-2-yl)-2-((4-methylphenyl)sulfonamido)benzamide] | 1000 |
| CCOC(=O)c1cccc(NC(=O)c2ccccc2NS(=O)(=O)c2ccc(C)cc2)c1 [HL-0026, ethyl 3-(2-((4-methylphenyl)sulfonamido)benzamido)benzoate] | 240 |
| Cc1ccc(NC(=O)c2ccccc2NS(=O)(=O)c2cccc(CCCO)c2)cc1 [JRW-1275, 2-((3-(3-hydroxypropyl)phenyl)sulfonamido)-N-(p-tolyl)benzamide] | 340 |
| COc1cccc(S(=O)(=O)Nc2ccccc2C(=O)Nc2cc3ccccc3s2)c1 [JRW-1230, N-(benzo[b]thiophen-2-yl)-2-((3-methoxyphenyl)sulfonamido)benzamide] | 7.8 |
| Cc1ccc(NC(=O)c2cc(O)ccc2NS(=O)(=O)c2ccc(C)cc2)cc1 [JRW-1232, 5-hydroxy-2-((4-methylphenyl)sulfonamido)-N-(p-tolyl)benzamide] | 1000 |
| CCCCc1ccc(S(=O)(=O)Nc2ccccc2C(=O)Nc2cc3ccccc3s2)cc1 [JRW-1114, N-(benzo[b]thiophen-2-yl)-2-((4-butylphenyl)sulfonamido)benzamide] | 170 |
| O=C(Nc1cc2ccccc2s1)c1ccccc1NS(=O)(=O)c1ccc2c(c1)CCCC2 [JRW-1077, N-(benzo[b]thiophen-2-yl)-2-((5,6,7,8-tetrahydronaphthalene)-2-sulfonamido)benzamide] | 89 |
| CCCCNc1cccc(S(=O)(=O)Nc2ccccc2C(=O)Nc2ccc(C)cc2)c1 [JRW-1269, 2-((3-(butylamino)phenyl)sulfonamido)-N-(p-tolyl)benzamide] | 1100 |
| COc1ccc(NS(=O)(=O)c2ccc(C)cc2)c(C(=O)Nc2cc3ccccc3s2)c1 [JRW-1167, N-(benzo[b]thiophen-2-yl)-5-methoxy-2-((4-methylphenyl)sulfonamido)benzamide] | 20 |
| Cc1ccc(S(=O)(=O)Nc2ccccc2C(=O)Nc2sc3c(c2C#N)CCC3)cc1 [JRW-0998, N-(3-cyano-5,6-dihydro-4H-cyclopenta[b]thiophen-2-yl)-2-((4-methylphenyl)sulfonamido)benzamide] | 43 |

| Compound | IC50 [nM] |
| --- | --- |
| Cc1ccc(S(=O)(=O)Nc2cc(F)ccc2C(=O)Nc2cc3ccccc3s2)cc1 [JRW-1346, N-(benzo[b]thiophen-2-yl)-4-fluoro-2-((4-methylphenyl)sulfonamido)benzamide] | 14 |
| Cc1ccc(S(=O)(=O)Nc2ccccc2C(=O)Nc2ccccc2Br)cc1 [JRW-1282, N-(2-bromophenyl)-2-((4-methylphenyl)sulfonamido)benzamide] | 200 |
| COC(=O)[C@H]1CC[C@H](NC(=O)c2ccccc2NS(=O)(=O)c2ccc(C)cc2)CC1 [HL-0009, methyl trans-4-(2-((4-methylphenyl)sulfonamido)benzamido)cyclohexane-1-carboxylate] | 16000 |
| CCN(c1ccccc1C(=O)Nc1ccc(OC)cc1)S(=O)(=O)c1ccc(C)cc1 [JRW-1325, 2-((N-ethyl-4-methylphenyl)sulfonamido)-N-(4-methoxyphenyl)benzamide] | 1300 |
| Cc1ccc(S(=O)(=O)Nc2ccccc2C(=O)Nc2ccc(CCCCO)cc2)cc1 [JRW-1150, N-(4-(4-hydroxybutyl)phenyl)-2-((4-methylphenyl)sulfonamido)benzamide] | 19000 |
| COc1cccc(NC(=O)c2ccccc2NS(=O)(=O)c2ccc(C)cc2)c1 [JRW-1299, N-(3-methoxyphenyl)-2-((4-methylphenyl)sulfonamido)benzamide] | 90 |
| Cc1ccc(NC(=O)c2ccccc2NS(=O)(=O)c2cccc(N)c2)cc1 [JRW-1255, 2-((3-aminophenyl)sulfonamido)-N-(p-tolyl)benzamide] | 60 |
| CCCCC#Cc1cccc(S(=O)(=O)Nc2ccccc2C(=O)Nc2ccc(C)cc2)c1 [JRW-1270, 2-((3-(hex-1-yn-1-yl)phenyl)sulfonamido)-N-(p-tolyl)benzamide] | 1200 |
| Cc1ccc(NC(=O)c2ccccc2NS(=O)(=O)c2cccc(C#CCO)c2)cc1 [JRW-1272, 2-((3-(3-hydroxyprop-1-yn-1-yl)phenyl)sulfonamido)-N-(p-tolyl)benzamide] | 700 |
| COC(=O)c1cccc(S(=O)(=O)Nc2ccccc2C(=O)Nc2ccc(C)cc2)c1 [JRW-1250, methyl 3-(N-(2-(p-tolylcarbamoyl)phenyl)sulfamoyl)benzoate] | 540 |
| Cc1ccc(S(=O)(=O)Nc2ccccc2C(=O)Nc2ccc(-c3ccccc3)cc2)cc1 [JRW-1288, N-([1,1′-biphenyl]-4-yl)-2-((4-methylphenyl)sulfonamido)benzamide] | 110 |
| Cc1ccc(S(=O)(=O)Nc2ccccc2C(=O)Nc2cccc(Br)c2)cc1 [JRW-1283, N-(3-bromophenyl)-2-((4-methylphenyl)sulfonamido)benzamide] | 46 |
| Cc1ccc(S(=O)(=O)Nc2ccc(C)cc2C(=O)Nc2cc3ccccc3s2)cc1 [HL-0061, N-(benzo[b]thiophen-2-yl)-5-methyl-2-((4-methylphenyl)sulfonamido)benzamide] | 29 |
| Cc1ccc(S(=O)(=O)Nc2ccc(C#N)cc2C(=O)Nc2cc3ccccc3s2)cc1 [HL-0071, N-(benzo[b]thiophen-2-yl)-5-cyano-2-((4-methylphenyl)sulfonamido)benzamide] | 43 |
| CCCCCCc1ccc(NC(=O)c2ccccc2NS(=O)(=O)c2ccc(C)cc2)cc1 [JRW-1090, N-(4-hexylphenyl)-2-((4-methylphenyl)sulfonamido)benzamide] | 1100 |
| Cc1ccc(S(=O)(=O)Nc2ccc(C(F)(F)F)cc2C(=O)Nc2cc3ccccc3s2)cc1 [JRW-1388, N-(benzo[b]thiophen-2-yl)-2-((4-methylphenyl)sulfonamido)-5-(trifluoromethyl)benzamide] | 0.58 |
